Experimental data reported in patent US4757133A, “Physiologically active peptide” (Eisai Co., Ltd., priority 1986, dated 1988).
Peptide text beside a SMILES is read from it.

System: smooth muscle of a bronchus
Test: Relaxation of muscle of bronchus removed from guinea pig (histamine-contracted tracheal chain, four-point assay)
Conditions: isolated guinea pig trachea chain, 6.5×10^-6 M histamine in Krebs solution at 37° C.; samples at 10^-5 M; area value of VIP-NH2 taken as 100%
From the text: A. Determination on Relaxation of Muscle of Bronchus Removed from Guinea Pig:
The juglar vein of a male guinea pig weighing 300 g or more is cut, causing the guinea pig to be bled to death. The guinea pig undergoes thoracotomy. Immediately after the thoracotomy, 3 cm of the trachea is taken out. The trachea is immediately put in a Krebs solution. It is then cut into seven equal rings, and the cartilages are connected to one another with a cotton yarn to form a chain. Subsequently, the smooth muscle parts and cartilages opposite them are cut, so that the smooth muscle parts can be connected to one another. The preparation thus prepared is placed in an isothermic glass cell having an internal capacity of about 7 ml and suspended from above. The lower part of the preparation is fixed, while the upper part is connected to an isometric transducer, to which 0.5 g of a load has been applied, in order to determine the relaxation reaction. Sufficient amounts of 95% oxygen and 5% carbon dioxide gas are blown into the preparation. Further, a Krebs solution of 37° C. containing 6.5×10^-6 M histamine is dropped on the preparation from above at a flow rate of 3.3 ml/min. The relaxation reaction takes place to an extent proportional to the amount of a sample added to the dropped solution. By utilizing this relationship, the relaxation activity against bronchial smooth muscle with respect to the substance of the present invention is compared with that of VIP-NH2. VIP-NH2 is used at a concentration of 10^-5 M and dropped in amounts of 40 μl and 80 μl. The substance of the present invention is also used at a concentration of 10^-5 M and dropped in amounts of 10 μl and 20 μl. The value of the area (height×time) in relaxation of each case is determined. The specific activities are obtained by taking the area value of VIP-NH2 as 100% and determining the relative ratio of the area value of each case. Thus, the relaxation reactions are compared by the four-point assay method, with respect to the above-mentioned determination method, reference may be made to the following articles (e) and (f):
(e) W. L. M. Perry, Pharmacological Experiments on Isolated Preparations: E & S Livingstone LTD. 1968; and
(f) Castillo, De Beer, J. Phamac. Exp. Ther. 90, 104 (1947).

SMILES	A: specific activity (%) obtained by method A (relaxation area value relative to VIP-NH2) [%]
CC[C@H](C)[C@H](NC(=O)[C@H](CO)NC(=O)[C@H](CC(N)=O)NC(=O)[C@H](CC(C)C)NC(=O)[C@H](Cc1ccc(O)cc1)NC(=O)[C@H](CCCCN)NC(=O)[C@H](CCCCN)NC(=O)[C@@H](NC(=O)[C@H](C)NC(=O)[C@H](CC(C)C)NC(=O)[C@H](CCC(N)=O)NC(=O)[C@H](CCCCN)NC(=O)[C@H](CCCNC(=N)N)NC(=O)[C@H](CC(C)C)NC(=O)[C@H](CCCNC(=N)N)NC(=O)[C@@H](NC(=O)[C@H](Cc1ccc(O)cc1)NC(=O)[C@H](CC(N)=O)NC(=O)[C@H](CC(=O)O)NC(=O)[C@@H](NC(=O)[C@H](Cc1ccccc1)NC(=O)[C@@H](NC(=O)[C@H](C)NC(=O)[C@H](CC(=O)O)NC(=O)[C@H](CO)NC(=O)[C@@H](N)Cc1c[nH]cn1)C(C)C)[C@@H](C)O)[C@@H](C)O)C(C)C)C(=O)N[C@@H](CC(C)C)C(=O)N[C@@H](CC(N)=O)C(=O)NCC(=O)N[C@@H](CCCCN)C(=O)O [X=Leu Y=Lys-OH] (H-HSDAVFTDNYTRLRKQLAVKKYLNSILNGK-OH)	410
CC[C@H](C)[C@H](NC(=O)[C@H](CO)NC(=O)[C@H](CC(N)=O)NC(=O)[C@H](CC(C)C)NC(=O)[C@H](Cc1ccc(O)cc1)NC(=O)[C@H](CCCCN)NC(=O)[C@H](CCCCN)NC(=O)[C@@H](NC(=O)[C@H](C)NC(=O)[C@H](CCSC)NC(=O)[C@H](CCC(N)=O)NC(=O)[C@H](CCCCN)NC(=O)[C@H](CCCNC(=N)N)NC(=O)[C@H](CC(C)C)NC(=O)[C@H](CCCNC(=N)N)NC(=O)[C@@H](NC(=O)[C@H](Cc1ccc(O)cc1)NC(=O)[C@H](CC(N)=O)NC(=O)[C@H](CC(=O)O)NC(=O)[C@@H](NC(=O)[C@H](Cc1ccccc1)NC(=O)[C@@H](NC(=O)[C@H](C)NC(=O)[C@H](CC(=O)O)NC(=O)[C@H](CO)NC(=O)[C@@H](N)Cc1c[nH]cn1)C(C)C)[C@@H](C)O)[C@@H](C)O)C(C)C)C(=O)N[C@@H](CC(C)C)C(=O)N[C@@H](CC(N)=O)C(=O)NCC(=O)O [X=Met Y=OH]	70
CC[C@H](C)[C@H](NC(=O)[C@H](CO)NC(=O)[C@H](CC(N)=O)NC(=O)[C@H](CC(C)C)NC(=O)[C@H](Cc1ccc(O)cc1)NC(=O)[C@H](CCCCN)NC(=O)[C@H](CCCCN)NC(=O)[C@@H](NC(=O)[C@H](C)NC(=O)[C@H](CCSC)NC(=O)[C@H](CCC(N)=O)NC(=O)[C@H](CCCCN)NC(=O)[C@H](CCCNC(=N)N)NC(=O)[C@H](CC(C)C)NC(=O)[C@H](CCCNC(=N)N)NC(=O)[C@@H](NC(=O)[C@H](Cc1ccc(O)cc1)NC(=O)[C@H](CC(N)=O)NC(=O)[C@H](CC(=O)O)NC(=O)[C@@H](NC(=O)[C@H](Cc1ccccc1)NC(=O)[C@@H](NC(=O)[C@H](C)NC(=O)[C@H](CC(=O)O)NC(=O)[C@H](CO)NC(=O)[C@@H](N)Cc1c[nH]cn1)C(C)C)[C@@H](C)O)[C@@H](C)O)C(C)C)C(=O)N[C@@H](CC(C)C)C(=O)N[C@@H](CC(N)=O)C(=O)NCC(=O)N[C@@H](CCCCN)C(N)=O [X=Met Y=Lys-NH2]	140
CC[C@H](C)[C@H](NC(=O)[C@H](CO)NC(=O)[C@H](CC(N)=O)NC(=O)[C@H](CC(C)C)NC(=O)[C@H](Cc1ccc(O)cc1)NC(=O)[C@H](CCCCN)NC(=O)[C@H](CCCCN)NC(=O)[C@@H](NC(=O)[C@H](C)NC(=O)[C@H](CCSC)NC(=O)[C@H](CCC(N)=O)NC(=O)[C@H](CCCCN)NC(=O)[C@H](CCCNC(=N)N)NC(=O)[C@H](CC(C)C)NC(=O)[C@H](CCCNC(=N)N)NC(=O)[C@@H](NC(=O)[C@H](Cc1ccc(O)cc1)NC(=O)[C@H](CC(N)=O)NC(=O)[C@H](CC(=O)O)NC(=O)[C@@H](NC(=O)[C@H](Cc1ccccc1)NC(=O)[C@@H](NC(=O)[C@H](C)NC(=O)[C@H](CC(=O)O)NC(=O)[C@H](CO)NC(=O)[C@@H](N)Cc1c[nH]cn1)C(C)C)[C@@H](C)O)[C@@H](C)O)C(C)C)C(=O)N[C@@H](CC(C)C)C(=O)N[C@@H](CC(N)=O)C(=O)NCC(=O)N[C@@H](CCCCN)C(=O)N[C@@H](CCCNC(=N)N)C(=O)O [X=Met Y=Lys-Arg-OH]	460
CC[C@H](C)[C@H](NC(=O)[C@H](CO)NC(=O)[C@H](CC(N)=O)NC(=O)[C@H](CC(C)C)NC(=O)[C@H](Cc1ccc(O)cc1)NC(=O)[C@H](CCCCN)NC(=O)[C@H](CCCCN)NC(=O)[C@@H](NC(=O)[C@H](C)NC(=O)[C@H](CCSC)NC(=O)[C@H](CCC(N)=O)NC(=O)[C@H](CCCCN)NC(=O)[C@H](CCCNC(=N)N)NC(=O)[C@H](CC(C)C)NC(=O)[C@H](CCCNC(=N)N)NC(=O)[C@@H](NC(=O)[C@H](Cc1ccc(O)cc1)NC(=O)[C@H](CC(N)=O)NC(=O)[C@H](CC(=O)O)NC(=O)[C@@H](NC(=O)[C@H](Cc1ccccc1)NC(=O)[C@@H](NC(=O)[C@H](C)NC(=O)[C@H](CC(=O)O)NC(=O)[C@H](CO)NC(=O)[C@@H](N)Cc1c[nH]cn1)C(C)C)[C@@H](C)O)[C@@H](C)O)C(C)C)C(=O)N[C@@H](CC(C)C)C(=O)N[C@@H](CC(N)=O)C(=O)NCC(=O)N[C@@H](CCCCN)C(=O)O [X=Met Y=Lys-OH]	300
CC[C@H](C)[C@H](NC(=O)[C@H](CO)NC(=O)[C@H](CC(N)=O)NC(=O)[C@H](CC(C)C)NC(=O)[C@H](Cc1ccc(O)cc1)NC(=O)[C@H](CCCCN)NC(=O)[C@H](CCCCN)NC(=O)[C@@H](NC(=O)[C@H](C)NC(=O)[C@H](CCSC)NC(=O)[C@H](CCC(N)=O)NC(=O)[C@H](CCCCN)NC(=O)[C@H](CCCNC(=N)N)NC(=O)[C@H](CC(C)C)NC(=O)[C@H](CCCNC(=N)N)NC(=O)[C@@H](NC(=O)[C@H](Cc1ccc(O)cc1)NC(=O)[C@H](CC(N)=O)NC(=O)[C@H](CC(=O)O)NC(=O)[C@@H](NC(=O)[C@H](Cc1ccccc1)NC(=O)[C@@H](NC(=O)[C@H](C)NC(=O)[C@H](CC(=O)O)NC(=O)[C@H](CO)NC(=O)[C@@H](N)Cc1c[nH]cn1)C(C)C)[C@@H](C)O)[C@@H](C)O)C(C)C)C(=O)N[C@@H](CC(C)C)C(=O)N[C@@H](CC(N)=O)C(=O)NCC(=O)N[C@@H](CCCNC(=N)N)C(=O)O [X=Met Y=Arg-OH]	220
CC[C@H](C)[C@H](NC(=O)[C@H](CO)NC(=O)[C@H](CC(N)=O)NC(=O)[C@H](CC(C)C)NC(=O)[C@H](Cc1ccc(O)cc1)NC(=O)[C@H](CCCCN)NC(=O)[C@H](CCCCN)NC(=O)[C@@H](NC(=O)[C@H](C)NC(=O)[C@H](CC(C)C)NC(=O)[C@H](CCC(N)=O)NC(=O)[C@H](CCCCN)NC(=O)[C@H](CCCNC(=N)N)NC(=O)[C@H](CC(C)C)NC(=O)[C@H](CCCNC(=N)N)NC(=O)[C@@H](NC(=O)[C@H](Cc1ccc(O)cc1)NC(=O)[C@H](CC(N)=O)NC(=O)[C@H](CC(=O)O)NC(=O)[C@@H](NC(=O)[C@H](Cc1ccccc1)NC(=O)[C@@H](NC(=O)[C@H](C)NC(=O)[C@H](CC(=O)O)NC(=O)[C@H](CO)NC(=O)[C@@H](N)Cc1c[nH]cn1)C(C)C)[C@@H](C)O)[C@@H](C)O)C(C)C)C(=O)N[C@@H](CC(C)C)C(=O)N[C@@H](CC(N)=O)C(=O)NCC(=O)N[C@@H](CCCCN)C(N)=O [X=Leu Y=Lys-NH2] (H-HSDAVFTDNYTRLRKQLAVKKYLNSILNGK-NH2)	300
CC[C@H](C)[C@H](NC(=O)[C@H](CO)NC(=O)[C@H](CC(N)=O)NC(=O)[C@H](CC(C)C)NC(=O)[C@H](Cc1ccc(O)cc1)NC(=O)[C@H](CCCCN)NC(=O)[C@H](CCCCN)NC(=O)[C@@H](NC(=O)[C@H](C)NC(=O)[C@H](CC(C)C)NC(=O)[C@H](CCC(N)=O)NC(=O)[C@H](CCCCN)NC(=O)[C@H](CCCNC(=N)N)NC(=O)[C@H](CC(C)C)NC(=O)[C@H](CCCNC(=N)N)NC(=O)[C@@H](NC(=O)[C@H](Cc1ccc(O)cc1)NC(=O)[C@H](CC(N)=O)NC(=O)[C@H](CC(=O)O)NC(=O)[C@@H](NC(=O)[C@H](Cc1ccccc1)NC(=O)[C@@H](NC(=O)[C@H](C)NC(=O)[C@H](CC(=O)O)NC(=O)[C@H](CO)NC(=O)[C@@H](N)Cc1c[nH]cn1)C(C)C)[C@@H](C)O)[C@@H](C)O)C(C)C)C(=O)N[C@@H](CC(C)C)C(=O)N[C@@H](CC(N)=O)C(=O)NCC(=O)N[C@@H](CCCCN)C(=O)N[C@@H](CCCNC(=N)N)C(=O)O [X=Leu Y=Lys-Arg-OH] (H-HSDAVFTDNYTRLRKQLAVKKYLNSILNGKR-OH)	410
